# In article PMC3577938 (Organic & biomolecular chemistry, 2013):
# What was measured:
# Assay type in all cases: cell-based
# [1] = test system: human TLR7 or human TLR8; conditions: for agonistic activity (in words): primary TLR8/TLR7 reporter gene assays, receptor not given; for TLR8 versus TLR7 selectivity (in words): primary reporter gene screens
# [2] = test system: human peripheral blood mononuclear cells (hPBMC); experiment: Cytokine induction in human PBMCs; conditions: human PBMCs stimulated 12 h
# [3] = molecular target: T1, human TLR8 (Homo sapiens, UniProt Q9NR97); experiment: Human TLR8-specific reporter gene assay; conditions: EC50 in human TLR8-specific reporter gene assay; Inactive = EC50 >100 μM
# T1 sequence (Q9NR97 27-1041): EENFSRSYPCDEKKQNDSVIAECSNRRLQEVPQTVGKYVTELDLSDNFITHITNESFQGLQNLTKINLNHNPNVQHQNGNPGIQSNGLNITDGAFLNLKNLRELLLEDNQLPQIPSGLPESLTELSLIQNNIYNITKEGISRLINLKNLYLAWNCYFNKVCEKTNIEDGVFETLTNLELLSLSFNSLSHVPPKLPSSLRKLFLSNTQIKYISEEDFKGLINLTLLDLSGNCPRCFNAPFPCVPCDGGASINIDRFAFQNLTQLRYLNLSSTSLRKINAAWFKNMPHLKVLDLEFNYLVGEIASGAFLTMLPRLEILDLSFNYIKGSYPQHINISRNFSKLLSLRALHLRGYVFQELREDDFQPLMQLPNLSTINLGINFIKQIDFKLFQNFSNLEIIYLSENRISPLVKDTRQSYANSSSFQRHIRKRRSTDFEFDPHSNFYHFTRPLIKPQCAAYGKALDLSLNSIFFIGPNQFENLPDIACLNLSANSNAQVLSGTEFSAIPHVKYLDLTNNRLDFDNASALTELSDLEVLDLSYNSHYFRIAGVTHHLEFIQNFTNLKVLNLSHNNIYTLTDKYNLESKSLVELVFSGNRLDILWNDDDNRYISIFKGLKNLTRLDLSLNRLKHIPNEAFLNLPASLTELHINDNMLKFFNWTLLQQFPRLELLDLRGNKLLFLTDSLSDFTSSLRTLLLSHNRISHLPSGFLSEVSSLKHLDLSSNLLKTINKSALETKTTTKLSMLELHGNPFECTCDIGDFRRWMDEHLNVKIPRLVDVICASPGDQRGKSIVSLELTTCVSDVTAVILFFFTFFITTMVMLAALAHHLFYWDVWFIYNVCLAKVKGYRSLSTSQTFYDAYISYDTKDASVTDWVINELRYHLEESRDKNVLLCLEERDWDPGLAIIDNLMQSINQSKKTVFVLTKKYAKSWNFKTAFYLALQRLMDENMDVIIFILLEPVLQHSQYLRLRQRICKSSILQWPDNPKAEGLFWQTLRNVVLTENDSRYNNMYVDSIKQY
# [4] = molecular target: T2, human TLR7 (Homo sapiens, UniProt Q9NYK1); experiment: Human TLR7-specific reporter gene assay; conditions: EC50 in human TLR7-specific reporter gene assay; Inactive = EC50 >100 μM
# T2 sequence (Q9NYK1 27-1049): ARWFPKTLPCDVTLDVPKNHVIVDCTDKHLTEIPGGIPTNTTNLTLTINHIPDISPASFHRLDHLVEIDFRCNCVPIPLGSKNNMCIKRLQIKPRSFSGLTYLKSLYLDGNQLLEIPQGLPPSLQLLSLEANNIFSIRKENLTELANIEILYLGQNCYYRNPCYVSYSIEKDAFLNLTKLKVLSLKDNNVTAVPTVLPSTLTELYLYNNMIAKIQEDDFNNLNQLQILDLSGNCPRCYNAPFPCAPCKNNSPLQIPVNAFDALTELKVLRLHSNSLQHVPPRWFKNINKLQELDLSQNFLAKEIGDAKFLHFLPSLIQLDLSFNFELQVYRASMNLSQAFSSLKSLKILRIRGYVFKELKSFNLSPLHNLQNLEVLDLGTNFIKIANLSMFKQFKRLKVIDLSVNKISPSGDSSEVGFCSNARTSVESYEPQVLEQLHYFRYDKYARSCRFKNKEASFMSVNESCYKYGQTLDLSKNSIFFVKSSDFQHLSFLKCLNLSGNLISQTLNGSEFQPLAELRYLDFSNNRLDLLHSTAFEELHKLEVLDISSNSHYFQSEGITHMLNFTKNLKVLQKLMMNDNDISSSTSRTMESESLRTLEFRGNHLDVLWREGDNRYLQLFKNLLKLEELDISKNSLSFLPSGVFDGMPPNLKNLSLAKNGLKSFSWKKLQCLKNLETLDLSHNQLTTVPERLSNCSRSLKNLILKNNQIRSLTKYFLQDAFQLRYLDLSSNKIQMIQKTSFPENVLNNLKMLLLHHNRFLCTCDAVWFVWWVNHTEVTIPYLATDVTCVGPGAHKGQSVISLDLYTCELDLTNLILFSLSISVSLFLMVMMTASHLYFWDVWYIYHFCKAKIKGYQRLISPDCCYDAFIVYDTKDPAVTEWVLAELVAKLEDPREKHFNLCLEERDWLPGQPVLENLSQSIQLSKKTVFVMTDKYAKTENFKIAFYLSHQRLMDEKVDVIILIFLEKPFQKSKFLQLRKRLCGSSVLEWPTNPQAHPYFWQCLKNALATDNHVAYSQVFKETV
SMILES,agonistic activity (in words) [1],TLR8 versus TLR7 selectivity (in words) [1],proinflammatory cytokine induction in hPBMCs (in words) [2],Agonistic Activity (μM) TLR8 [3],Agonistic Activity (μM) TLR7 [4]
"CC(C)Cc1nc2c(N)nc3ccccc3c2s1 [Compound 8j, 2-isobutylthiazolo[4,5-c]quinolin-4-amine]",well tolerated,substantially more TLR8-selective,inferior in their cytokine induction profiles,–,–
"CC(C)(C)Cc1nc2c(N)nc3ccccc3c2s1 [Compound 8k, 2-neopentylthiazolo[4,5-c]quinolin-4-amine]",inactive,–,–,Inactive,Inactive
"CC(C)CCc1nc2c(N)nc3ccccc3c2s1 [Compound 8l, 2-isopentylthiazolo[4,5-c]quinolin-4-amine]",entirely inactive,–,–,Inactive,Inactive
"CC(C)(C)CCc1nc2c(N)nc3ccccc3c2s1 [Compound 8m, 2-(3,3-dimethylbutyl)thiazolo[4,5-c]quinolin-4-amine]",inactive,–,–,Inactive,Inactive
"CC[C@H](C)c1nc2c(N)nc3ccccc3c2s1 [Compound 8n, (S)-2-(sec-butyl)thiazolo[4,5-c]quinolin-4-amine]",well tolerated,substantially more TLR8-selective,inferior in their cytokine induction profiles,–,–
"CC[C@H](C)Cc1nc2c(N)nc3ccccc3c2s1 [Compound 8o, (S)-2-(2-methylbutyl)thiazolo[4,5-c]quinolin-4-amine]",active,substantially more TLR8-selective,inferior in their cytokine induction profiles,–,–
"CCCc1nc2c(N)nc3ccc([N+](=O)[O-])cc3c2s1 [Compound 9, 8-nitro-2-propylthiazolo[4,5-c]quinolin-4-amine]",inactive,–,–,Inactive,Inactive
"CCCc1nc2c(N)nc3ccc(N)cc3c2s1 [Compound 10, 2-propylthiazolo[4,5-c]quinoline-4,8-diamine]",attenuated activity relative to 8c,–,–,–,–
"CCCc1nc2c(N)nc3ccc(N=[N+]=[N-])cc3c2s1 [Compound 11, 8-azido-2-propylthiazolo[4,5-c]quinolin-4-amine]",inactive,–,–,–,–
"CCCCCCNc1ccc2nc(N)c3nc(CCC)sc3c2c1 [Compound 13a, N^8-hexyl-2-propylthiazolo[4,5-c]quinoline-4,8-diamine]",inactive,–,–,Inactive,Inactive
"CCCC(=O)Nc1ccc2nc(N)c3nc(CCC)sc3c2c1 [Compound 13b, N-(4-amino-2-propylthiazolo[4,5-c]quinolin-8-yl)butyramide]",inactive,–,–,Inactive,Inactive
"CCCc1nc2c(N)nc3ccc(Br)cc3c2s1 [Compound 14, 8-bromo-2-propylthiazolo[4,5-c]quinolin-4-amine]",inactive,–,–,Inactive,Inactive
"CCCCNc1nc2ccccc2c2sc(CCC)nc12 [Compound 15a, N-butyl-2-propylthiazolo[4,5-c]quinolin-4-amine]",devoid of any agonistic activity,–,–,Inactive,Inactive
"CCCCCCNc1nc2ccccc2c2sc(CCC)nc12 [Compound 15b, N-hexyl-2-propylthiazolo[4,5-c]quinolin-4-amine]",devoid of any agonistic activity,–,–,Inactive,Inactive
"CCCC(=O)Nc1nc2ccccc2c2sc(CCC)nc12 [Compound 15f, N-(2-propylthiazolo[4,5-c]quinolin-4-yl)butyramide]",active,–,–,–,Inactive
"CCCCCCCC(=O)Nc1nc2ccccc2c2sc(CCC)nc12 [Compound 15g, N-(2-propylthiazolo[4,5-c]quinolin-4-yl)octanamide]",inactive,–,–,Inactive,Inactive
"CCCCCCCCCCCCCCCC(=O)Nc1nc2ccccc2c2sc(CCC)nc12 [Compound 15h, N-(2-propylthiazolo[4,5-c]quinolin-4-yl)palmitamide]",inactive,–,–,Inactive,Inactive
"CCCc1nc2c(NC(=O)c3ccccc3)nc3ccccc3c2s1 [Compound 15i, N-(2-propylthiazolo[4,5-c]quinolin-4-yl)benzamide]",entirely inactive,–,–,Inactive,Inactive
"CCCc1nc2c(NC(N)=O)nc3ccccc3c2s1 [Compound 15q, 1-(2-propylthiazolo[4,5-c]quinolin-4-yl)urea]",inactive,–,–,Inactive,Inactive
"CCCc1nc2c(NC(=N)N)nc3ccccc3c2s1 [Compound 17, 1-(2-propylthiazolo[4,5-c]quinolin-4-yl)guanidine]",inactive,–,–,Inactive,Inactive
"CCCCc1nc2c(NC(C)=O)nc3ccccc3c2s1 [Compound 18b, N-(2-butylthiazolo[4,5-c]quinolin-4-yl)acetamide]",selective loss of activity,–,–,Inactive,Inactive
